Patent US4508648A, “Phosphoric ester of antibiotic OA-6129” (Sanraku-Ocean Co., Ltd., priority 1981, dated 1985)
In brackets after ≈: the same amount, converted by molar mass. Like-named read-outs stand apart in the source and are kept apart here.

Key:
[1] = Relative stability in kidney homogenate of man; assay type: in vitro ADME; conditions: human (man) kidney homogenate; 37° C., 60 minutes; drug solution 100-300 μg/ml; read-out: Relative stability: drug remaining as a percentage of initial concentration
Method: (§1) *A drug solution (100-300 μg/ml) (0.1 ml) and a kidney homogenate (0.1
(§2) ml) were allowed to react at 37° C. for 60 minutes and the mixture
(§3) was immediately heattreated at 100° C. for 15 seconds. After
(§4) centrifugation, the concentration of the drug remaining in the supernatan
(§5) solution was bioassayed as a percentage of initial concentration by
(§6) Comamonas terrigena B996.
(§7) An overnight culture of Comamonas terrigena B-996 on a nutrient agar slant was suspended in nutrient broth to give a cell suspension of absorbance 0.04 at 610 nm. One percent of the cell suspension in volume was inoculated into molten agar medium containing 0.8% in weight of Kyokuto powdered bouillon (Kyokuto Pharmaceutical Co.) and 1.0% in weight of Bato-agar (Difco Lab.), and 7 ml each of the inoculated agar medium was poured into a 9 cm petri dish to make a Comamonas assay plate.

[2] = Relative stability in kidney homogenate of mouse; assay type: in vitro ADME; conditions: 37° C., 60 minutes, drug solution 100-300 μg/ml, read-out: Relative stability: drug remaining as a percentage of initial concentration
Method: as §1, §2, §3, §4, §5, §6, §7

[3] = Relative stability in phosphate buffer, pH 7.0 (control); assay type: physicochemical; conditions: 37° C., 60 minutes, drug solution 100-300 μg/ml, read-out: Relative stability: drug remaining as a percentage of initial concentration
Method: as §1, §2, §3, §4, §5, §6, §7

[4] = Relative stability in kidney homogenate of dog; assay type: in vitro ADME; conditions: 37° C., 60 minutes, drug solution 100-300 μg/ml, read-out: Relative stability: drug remaining as a percentage of initial concentration
Method: as §1, §2, §3, §4, §5, §6, §7

[5] = tested on: Staphylococcus aureus Smith; experiment: Minimum inhibitory concentration, agar dilution technique; assay type: cell-based; conditions: read-out: Minimum Inhibitory Concentration (M.I.C.)
Description: (§8) Minimum Inhibitory Concentration (M.I.C. in μg/ml)**
(§9) **Medium heartinfusion agar (Difco Lab.); inoculum size 10^6 cells/ml
(§10) determined by the agar dilution technique

[6] = tested on: Staphylococcus epidermidis; experiment: as above; assay type: cell-based; conditions: heart infusion agar, inoculum 10^6 cells/ml, read-out: Minimum Inhibitory Concentration (M.I.C.)
Description: as §8, §9, §10

[7] = tested on: Staphylococcus aureus 209P; experiment: as above; assay type: cell-based; conditions: read-out: Minimum Inhibitory Concentration (M.I.C.)
Description: as §8, §9, §10

Providencia sp. P-8 = experiment: as above; assay type: cell-based; conditions: SP.P8, heart infusion agar, inoculum 10^6 cells/ml, read-out: Minimum Inhibitory Concentration (M.I.C.)
Description: as §8, §9, §10

[8] = tested on: Staphylococcus aureus Russell; experiment: as above; assay type: cell-based; conditions: heart infusion agar, inoculum 10^6 cells/ml, read-out: Minimum Inhibitory Concentration (M.I.C.)
Description: as §8, §9, §10

Sarcina lutea = experiment: as above; assay type: cell-based; conditions: Micrococcus luteus; heart infusion agar; inoculum 10^6 cells/ml; read-out: Minimum Inhibitory Concentration (M.I.C.)
Description: as §8, §9, §10

Proteus mirabilis P-6 = experiment: as above; assay type: cell-based; conditions: P6, heart infusion agar, inoculum 10^6 cells/ml, read-out: Minimum Inhibitory Concentration (M.I.C.)
Description: as §8, §9, §10

Escherichia coli K-12 = experiment: as above; assay type: cell-based; conditions: K12, heart infusion agar, inoculum 10^6 cells/ml, read-out: Minimum Inhibitory Concentration (M.I.C.)
Description: as §8, §9, §10

Proteus rettgeri P-6 = experiment: as above; assay type: cell-based; conditions: Providencia rettgeri
Description: as §8, §9, §10

[9] = tested on: Comamonas terrigena B-996; experiment: as above; assay type: cell-based; conditions: B996, heart infusion agar, inoculum 10^6 cells/ml, read-out: Minimum Inhibitory Concentration (M.I.C.)
Description: as §8, §9, §10

[10] = tested on: Bacillus subtilis ATCC 6633; experiment: as above; assay type: cell-based
Description: as §8, §9, §10

Alcaligenes faecalis A1 = experiment: as above; assay type: cell-based; conditions: heart infusion agar, inoculum 10^6 cells/ml, read-out: Minimum Inhibitory Concentration (M.I.C.)
Description: as §8, §9, §10

Enterobacter sp. E-8 = experiment: as above; assay type: cell-based; conditions: SP.E8, heart infusion agar, inoculum 10^6 cells/ml, read-out: Minimum Inhibitory Concentration (M.I.C.)
Description: as §8, §9, §10

Proteus vulgaris GN76 = experiment: as above; assay type: cell-based; conditions: beta-lactam-resistant strain, heart infusion agar, inoculum 10^6 cells/ml, read-out: Minimum Inhibitory Concentration (M.I.C.)
Description: as §8
(§11) *Beta-lactam-resistant strain.
as §9, §10

Escherichia coli RGN823 = experiment: as above; assay type: cell-based; conditions: RGN823, read-out: Minimum Inhibitory Concentration (M.I.C.)
Description: as §8, §11, §9, §10

[11] = tested on: Klebsiella pneumoniae K13; experiment: as above; assay type: cell-based
Description: as §8, §11, §9, §10

Enterobacter cloacae 45 = experiment: as above; assay type: cell-based; conditions: beta-lactam-resistant strain, heart infusion agar, inoculum 10^6 cells/ml, read-out: Minimum Inhibitory Concentration (M.I.C.)
Description: as §8, §11, §9, §10

[12] = tested on: Pseudomonas aeruginosa NCTC 10490; experiment: as above; assay type: cell-based; conditions: NCTC10490, beta-lactam-resistant strain, heart infusion agar, inoculum 10^6 cells/ml, read-out: Minimum Inhibitory Concentration (M.I.C.)
Description: as §8, §11, §9, §10

Serratia marcescens S-18 = experiment: as above; assay type: cell-based
Description: as §8, §11, §9, §10

Proteus sp. P-22 = experiment: as above; assay type: cell-based; conditions: beta-lactam-resistant strain; heart infusion agar; inoculum 10^6 cells/ml; read-out: Minimum Inhibitory Concentration (M.I.C.)
Description: as §8, §11, §9, §10

[13] = tested on: Citrobacter freundii GN346; experiment: as above; assay type: cell-based; conditions: beta-lactam-resistant strain, heart infusion agar, inoculum 10^6 cells/ml, read-out: Minimum Inhibitory Concentration (M.I.C.)
Description: as §8, §11, §9, §10

[14] = tested on: Pseudomonas aeruginosa IFO 3445; experiment: as above; assay type: cell-based; conditions: IFO3445, beta-lactam-resistant strain, heart infusion agar, inoculum 10^6 cells/ml, read-out: Minimum Inhibitory Concentration (M.I.C.)
Description: as §8, §11, §9, §10

Serratia marcescens T55 = experiment: as above; assay type: cell-based; conditions: beta-lactam-resistant strain, heart infusion agar, inoculum 10^6 cells/ml, read-out: Minimum Inhibitory Concentration (M.I.C.)
Description: as §8, §11, §9, §10

[15] = tested on: Enterobacter aerogenes E-19; experiment: as above; assay type: cell-based; conditions: Klebsiella aerogenes, E19; beta-lactam-resistant strain; heart infusion agar; inoculum 10^6 cells/ml; read-out: Minimum Inhibitory Concentration (M.I.C.)
Description: as §8, §11, §9, §10

[16] = heart infusion agar, inoculum 10^6 cells/ml

Row | Compound | remaining at 1 h [1] [%] | remaining at 1 h [2] [%] | remaining at 1 h [3] [%] | remaining at 1 h [4] [%] | MIC [6] [mg/L] | MIC (Providencia sp. P-8) [mg/L] | MIC [8] [mg/L] | MIC (Sarcina lutea) [mg/L] | MIC (Proteus mirabilis P-6) [mg/L] | MIC (Escherichia coli K-12) [mg/L] | MIC [9] [mg/L] | MIC (Alcaligenes faecalis A1) [mg/L] | MIC (Enterobacter sp. E-8) [mg/L] | MIC (Proteus vulgaris GN76) [mg/L] | MIC (Escherichia coli RGN823) [mg/L] | MIC (Enterobacter cloacae 45) [mg/L] | MIC [12] [mg/L] | MIC (Proteus sp. P-22) [mg/L] | MIC [13] [mg/L] | MIC [14] [mg/L] | further results
1 | CCC1C(=O)N2C(C(=O)O)=C(SCCNC(C)=O)CC12 (stereo not drawn) [Antibiotic PS-5] | 28 | 10 | 100 | 10 | – | – | – | – | – | – | – | – | – | – | – | – | – | – | – | – | –
2 | CCC1C(=O)N2C(C(=O)O)=C(SCCNC(=O)CCNC(=O)C(O)C(C)(C)COP(=O)(O)O)CC12 (stereo not drawn) [Phosphoric ester of antibiotic OA-6129A] | 96 | 47 | 114 | 18 | 6.25 (≈ 11.6 µM) | 6.25 (≈ 11.6 µM) | 6.25 (≈ 11.6 µM) | 6.25 (≈ 11.6 µM) | 25 (≈ 46.5 µM) | 3.13 (≈ 5.82 µM) | 0.05 (≈ 0.093 µM) | 1.56 (≈ 2.9 µM) | 3.13 (≈ 5.82 µM) | 25 (≈ 46.5 µM) | 3.13 (≈ 5.82 µM) | 25 (≈ 46.5 µM) | > 25 | 25 (≈ 46.5 µM) | > 25 | > 25 | MIC [5]: 3.13 mg/L (≈ 5.82 µM); MIC [7, 16]: 1.56 mg/L (≈ 2.9 µM); MIC (Proteus rettgeri P-6; P6, heart infusion agar, inoculum 10^6 cells/ml, read-out: Minimum Inhibitory Concentration (M.I.C.)): 12.5 mg/L (≈ 23.3 µM); MIC ([10]; ATCC6633, read-out: Minimum Inhibitory Concentration (M.I.C.)): 3.13 mg/L (≈ 5.82 µM); MIC ([11]; K13, beta-lactam-resistant strain, heart infusion agar, inoculum 10^6 cells/ml, read-out: Minimum Inhibitory Concentration (M.I.C.)): 25 mg/L (≈ 46.5 µM); MIC (Serratia marcescens S-18; S18, beta-lactam-resistant strain, heart infusion agar, inoculum 10^6 cells/ml, read-out: Minimum Inhibitory Concentration (M.I.C.)): 25 mg/L (≈ 46.5 µM); MIC (Serratia marcescens T55): > 25 mg/L; MIC [15]: 12.5 mg/L (≈ 23.3 µM)
3 | CC(O)C1C(=O)N2C(C(=O)O)=C(SCCNC(=O)CCNC(=O)C(O)C(C)(C)COP(=O)(O)O)CC12 (stereo not drawn) [Phosphoric ester of antibiotic OA-6129B] | 72 | 42 | 100 | 29 | > 25 | 6.25 (≈ 11.3 µM) | > 25 | > 25 | 25 (≈ 45.2 µM) | 12.5 (≈ 22.6 µM) | 0.39 (≈ 0.705 µM) | 6.25 (≈ 11.3 µM) | 12.5 (≈ 22.6 µM) | 25 (≈ 45.2 µM) | 12.5 (≈ 22.6 µM) | > 25 | > 25 | 25 (≈ 45.2 µM) | > 25 | > 25 | MIC [5, 16]: > 25 mg/L; MIC [7]: 12.5 mg/L (≈ 22.6 µM); MIC (Proteus rettgeri P-6; P6, read-out: Minimum Inhibitory Concentration (M.I.C.)): 12.5 mg/L (≈ 22.6 µM); MIC ([10]; ATCC6633, heart infusion agar, inoculum 10^6 cells/ml, read-out: Minimum Inhibitory Concentration (M.I.C.)): 25 mg/L (≈ 45.2 µM); MIC ([11]; K13, read-out: Minimum Inhibitory Concentration (M.I.C.)): 12.5 mg/L (≈ 22.6 µM); MIC (Serratia marcescens S-18; S18, read-out: Minimum Inhibitory Concentration (M.I.C.)): 12.5 mg/L (≈ 22.6 µM); MIC (Serratia marcescens T55): 25 mg/L (≈ 45.2 µM); MIC [15]: 25 mg/L (≈ 45.2 µM)
